Source: US20240228510A1, “KRAS G12C INHIBITORS” (Mirati Therapeutics, Inc., priority 2021, published 2024)

Test system: KRas G12C
Assay: Inhibition of KRas G12C-mediated pERK in H358 cells (Phospho-ERK In-Cell Western)
Format: cell-based
Conditions: Homo sapiens; NCI-H358 cells; 3 hours compound; pERK(Thr202/Tyr204) normalized to GAPDH; 4 parameter fit
Method: The cellular inhibition of KRAs G12C by exemplary compounds of the present invention was determined by measuring the amount of a downstream marker of KRas activity, phosphorylated ERK (“Phospho-ERK”).
NCI-H358 cells (ATCC CRL-5807) express KRas G12C and were grown in RPMI medium supplemented with 10% fetal bovine serum, penicillin/streptomycin and 10 mM HEPES. Cells were plated in poly-D-Lysine coated 96-well plates at a concentration of 50,000 cells/well and allowed to attach for 8-12 hours. Diluted compounds were then added at a final concentration of 0.5% DMSO. After 3 hours, the medium was removed, 150 μL of 4% formaldehyde was added and the plates were incubated for 20 minutes. The plates were washed with PBS, and permeabilized using 150 μL of ice cold 100% methanol for 10 minutes. Non-specific antibody binding to the plates was blocked using 100 μL Licor Blocking Buffer (Li-Cor Biotechnology, Lincoln NE) for 1 hour at room temperature. Positive control samples and samples lacking cells were parallel processed with test samples as standards.
The amount Phospho-ERK was determined using an antibody specific for the phosphorylated form of ERK and compared to the amount of GAPDH. Primary antibodies used for detection were added as follows: Phospho-ERK (Cell Signaling cs9101) diluted 1:500 and GAPDH (Millipore MAB374) diluted 1:5000 in Licor block+0.05% Tween 20. The plates were incubated for 2 hours at room temperature. The plates were washed with PBS+0.05% Tween 20.
Secondary antibodies used to visualize primary antibodies were added as follows: Anti-rabbit-680 diluted 1:1000 and Anti-mouse-800 diluted 1:1000 in Licor Block+0.05% Tween 20 and incubated for 1 hour at room temperature. The plates were washed with PBS+0.05% Tween 20. A 100 μL aliquot of PBS was added to each well and the plates were read on a LICOR AERIUS plate reader.
The pERK(Thr202/Tyr204) signal was normalized with the GAPDH signal and percent of DMSO control values were calculated. IC50 values were generated using a 4 parameter fit of the dose response curve.

C=CC(=O)N1CCN(c2ccnc3c(F)c(-c4cccc5ccc(F)c(Cl)c45)ncc23)CC1 [Example 1, 1-(4-(7-(8-chloro-7-fluoronaphthalen-1-yl)-8-fluoro-1,6-naphthyridin-4-yl)piperazin-1-yl)prop-2-en-1-one]
IC50: 2740 nM

C=CC(=O)N1CCN(c2c(F)cnc3c(F)c(-c4cccc5ccc(F)c(Cl)c45)ncc23)CC1 [Example 2, 1-(4-(7-(8-chloro-7-fluoronaphthalen-1-yl)-3,8-difluoro-1,6-naphthyridin-4-yl)piperazin-1-yl)prop-2-en-1-one]
IC50: 3050 nM

C#Cc1cccc2cccc(-c3ncc4c(N5C[C@@H]6[C@H]5CCN6C(=O)C=C)c(Cl)cnc4c3F)c12 [Example 3, 1-((1R,5R)-6-(3-chloro-7-(8-ethynylnaphthalen-1-yl)-8-fluoro-1,6-naphthyridin-4-yl)-2,6-diazabicyclo[3.2.0]heptan-2-yl)prop-2-en-1-one]
IC50: 75 nM

C=CC(=O)N1CC[C@@H]2[C@H]1CN2c1c(Cl)cnc2c(F)c(-c3cccc4ccc(F)c(Cl)c34)ncc12 [Example 4, 1-((1R,5R)-6-(3-chloro-7-(8-chloro-7-fluoronaphthalen-1-yl)-8-fluoro-1,6-naphthyridin-4-yl)-2,6-diazabicyclo[3.2.0]heptan-2-yl)prop-2-en-1-one]
IC50: 169 nM

C=CC(=O)N1CCN(c2c(C)cnc3c(F)c(-c4cccc5ccc(F)c(Cl)c45)ncc23)CC1 [Example 5, 1-(4-(7-(8-chloro-7-fluoronaphthalen-1-yl)-8-fluoro-3-methyl-1,6-naphthyridin-4-yl)piperazin-1-yl)prop-2-en-1-one]
IC50: 5000 nM

C#Cc1c(F)ccc2cccc(-c3ncc4c(N5C[C@@H]6[C@H]5CCN6C(=O)C=C)c(OC)cnc4c3F)c12 [Example 6, 1-((1R,5R)-6-(7-(8-ethynyl-7-fluoronaphthalen-1-yl)-8-fluoro-3-methoxy-1,6-naphthyridin-4-yl)-2,6-diazabicyclo[3.2.0]heptan-2-yl)prop-2-en-1-one]
IC50: 22 nM

C=CC(=O)N1CCN(c2c(Cl)cnc3c(F)c(-c4cccc5ccc(F)c(Cl)c45)ncc23)CC1 [Example 7, 1-(4-(3-chloro-7-(8-chloro-7-fluoronaphthalen-1-yl)-8-fluoro-1,6-naphthyridin-4-yl)piperazin-1-yl)prop-2-en-1-one]
IC50: 5910 nM

C#Cc1cccc2cc(O)cc(-c3ncc4c(N5C[C@@H]6[C@H]5CCN6C(=O)C=C)c(Cl)cnc4c3F)c12 [Example 8, 1-((1R,5R)-6-(3-chloro-7-(8-ethynyl-3-hydroxynaphthalen-1-yl)-8-fluoro-1,6-naphthyridin-4-yl)-2,6-diazabicyclo[3.2.0]heptan-2-yl)prop-2-en-1-one]
IC50: 1 nM

C=CC(=O)N1CCN(c2c(OC)cnc3c(F)c(-c4cccc5ccc(F)c(Cl)c45)ncc23)CC1 [Example 9, 1-(4-(7-(8-chloro-7-fluoronaphthalen-1-yl)-8-fluoro-3-methoxy-1,6-naphthyridin-4-yl)piperazin-1-yl)prop-2-en-1-one]
IC50: 9000 nM

C=CC(=O)N1CCN(c2c(C#N)cnc3c(F)c(-c4cccc5ccc(F)c(Cl)c45)ncc23)CC1 [Example 10, 4-(4-acryloylpiperazin-1-yl)-7-(8-chloro-7-fluoronaphthalen-1-yl)-8-fluoro-1,6-naphthyridine-3-carbonitrile]
IC50: 3680 nM

C#Cc1c(F)ccc2cccc(-c3ncc4c(N5C[C@@H]6[C@H]5CCN6C(=O)C=C)ccnc4c3F)c12 [Example 11, 1-((1R,5R)-6-(7-(8-ethynyl-7-fluoronaphthalen-1-yl)-8-fluoro-1,6-naphthyridin-4-yl)-2,6-diazabicyclo[3.2.0]heptan-2-yl)prop-2-en-1-one]
IC50: 17 nM

C#Cc1c(F)ccc2cccc(-c3ncc4c(N5C[C@@H]6[C@H]5CCN6C(=O)C=C)c(C#N)cnc4c3F)c12 [Example 12, 4-((1R,5R)-2-acryloyl-2,6-diazabicyclo[3.2.0]heptan-6-yl)-7-(8-ethynyl-7-fluoronaphthalen-1-yl)-8-fluoro-1,6-naphthyridine-3-carbonitrile]
IC50: 24 nM

C#Cc1c(F)ccc2cccc(-c3ncc4c(N5C[C@@H]6[C@H]5CCN6C(=O)C=C)c(Cl)cnc4c3F)c12 [Example 13, 1-((1R,5R)-6-(3-chloro-7-(8-ethynyl-7-fluoronaphthalen-1-yl)-8-fluoro-1,6-naphthyridin-4-yl)-2,6-diazabicyclo[3.2.0]heptan-2-yl)prop-2-en-1-one]
IC50: 31 nM

C#Cc1c(F)ccc2cccc(-c3ncc4c(N5C[C@@H]6[C@H]5CCN6C(=O)C=C)cc(C)nc4c3F)c12 [Example 14, 1-((1R,5R)-6-(7-(8-ethynyl-7-fluoronaphthalen-1-yl)-8-fluoro-2-methyl-1,6-naphthyridin-4-yl)-2,6-diazabicyclo[3.2.0]heptan-2-yl)prop-2-en-1-one]
IC50: 21 nM

C#Cc1c(F)ccc2cccc(-c3ncc4c(N5[C@@H]6CCN(C(=O)C=C)[C@@H]6[C@@H]5C)cc(OC)nc4c3F)c12 [Example 15, 1-((1R,5R,7S)-6-(7-(8-ethynyl-7-fluoronaphthalen-1-yl)-8-fluoro-2-methoxy-1,6-naphthyridin-4-yl)-7-methyl-2,6-diazabicyclo[3.2.0]heptan-2-yl)prop-2-en-1-one]
IC50: 1440 nM

C#Cc1c(F)ccc2cccc(-c3ncc4c(N5[C@@H]6CCN(C(=O)C=C)[C@@H]6[C@@H]5C)cc(C)nc4c3F)c12 [Example 16, 1-((1R,5R,7S)-6-(7-(8-ethynyl-7-fluoronaphthalen-1-yl)-8-fluoro-2-methyl-1,6-naphthyridin-4-yl)-7-methyl-2,6-diazabicyclo[3.2.0]heptan-2-yl)prop-2-en-1-one]
IC50: 73 nM

C=CC(=O)N1CC[C@@H]2[C@H]1CN2c1snc2c(F)c(-c3cccc4ccc(F)c(Cl)c34)ncc12 [Example 17, 1-((1R,5R)-6-(6-(8-chloro-7-fluoronaphthalen-1-yl)-7-fluoroisothiazolo[4,3-c]pyridin-3-yl)-2,6-diazabicyclo[3.2.0]heptan-2-yl)prop-2-en-1-one]
IC50: 6000 nM

C#Cc1cccc2cc(O)cc(-c3ncc4c(N5C[C@@H]6[C@H]5CCN6C(=O)C=C)snc4c3F)c12 [Example 18, 1-((1R,5R)-6-(6-(8-ethynyl-3-hydroxynaphthalen-1-yl)-7-fluoroisothiazolo[4,3-c]pyridin-3-yl)-2,6-diazabicyclo[3.2.0]heptan-2-yl)prop-2-en-1-one]
IC50: 14 nM

C#Cc1cccc2cccc(-c3ncc4c(N5C[C@@H]6[C@H]5CCN6C(=O)C=C)snc4c3F)c12 [Example 19, 1-((1R,5R)-6-(6-(8-ethynylnaphthalen-1-yl)-7-fluoroisothiazolo[4,3-c]pyridin-3-yl)-2,6-diazabicyclo[3.2.0]heptan-2-yl)prop-2-en-1-one]
IC50: 748 nM

C=CC(=O)N1CC2(C1)CN(c1snc3c(F)c(-c4cccc5ccc(F)c(Cl)c45)ncc13)C2 [Example 20, 1-(6-(6-(8-chloro-7-fluoronaphthalen-1-yl)-7-fluoroisothiazolo[4,3-c]pyridin-3-yl)-2,6-diazaspiro[3.3]heptan-2-yl)prop-2-en-1-one]
IC50: 7000 nM

C=CC(=O)N(C)C1CN(c2snc3c(F)c(-c4cccc5ccc(F)c(Cl)c45)ncc23)C1 [Example 21, N-(1-(6-(8-chloro-7-fluoronaphthalen-1-yl)-7-fluoroisothiazolo[4,3-c]pyridin-3-yl)azetidin-3-yl)-N-methylacrylamide]
IC50: 9000 nM

C=CC(=O)N1CC2(CCN(c3snc4c(F)c(-c5cccc6ccc(F)c(Cl)c56)ncc34)CC2)C1 [Example 22, 1-(7-(6-(8-chloro-7-fluoronaphthalen-1-yl)-7-fluoroisothiazolo[4,3-c]pyridin-3-yl)-2,7-diazaspiro[3.5]nonan-2-yl)prop-2-en-1-one]
IC50: 8000 nM
